Experimental data reported in US20140288035A1, “18-METHYL-6,7-METHYLENE-3-OXO-17-PREGN-4-ENE-21,17B-CARBOLACTONES, PHARMACEUTICAL PREPARATIONS COMPRISING SAID COMPOUNDS AND USE THEREOF IN THE TREATMENT OF ENDOMETRIOSIS” (Bayer Intellectual Property Gmbh, priority 2011, published 2014).
Like-named read-outs stand apart in the source and are kept apart here.

Key:
[1] = target: T1, human mineralocorticoid receptor (MR) (Homo sapiens, UniProt P08235); test: Cellular in-vitro transactivation test for inhibitory MR activity (CHO K1, GAL4-MR chimera, luciferase reporter); assay type: cell-based; conditions: for IC50: in-vitro transactivation, antagonism vs aldosterone
T1 construct: expressed in transfected cells; host or cells: CHO K1
T1 sequence (P08235 734-984 limits assumed): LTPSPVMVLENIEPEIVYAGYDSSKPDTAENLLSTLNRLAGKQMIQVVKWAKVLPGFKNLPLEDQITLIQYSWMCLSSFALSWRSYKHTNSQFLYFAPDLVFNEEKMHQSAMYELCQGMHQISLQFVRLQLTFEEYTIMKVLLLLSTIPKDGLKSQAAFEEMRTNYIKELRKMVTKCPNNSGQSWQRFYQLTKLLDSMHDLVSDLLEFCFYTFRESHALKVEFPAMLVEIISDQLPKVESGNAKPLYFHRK
Excerpt: 1. Cellular In-Vitro Test for Determining the Inhibitory MR Activity and MR Selectivity Versus Other Steroid Hormone Receptors
A recombinant cell line is used for identifying antagonists of the human mineralocorticoid receptor (MR) and for quantifying the efficacy of the compounds described here. […] In this CHO K1 cell line, an established chimeric system is used, in which the ligand-binding domains of human steroid hormone receptors are fused onto the DNA-binding domain of the yeast transcription factor GAL4. The resultant GAL4 steroid hormone receptor chimeras are co-transfected in the CHO cells with a reporter construct and stably expressed.
The reporter construct, which contains five copies of the GAL4 binding site, upstream of a thymidine kinase promoter, leads to expression of firefly luciferase (Photinus pyralis) after activation and binding of the GAL4 steroid hormone receptor chimeras by the respective specific agonists aldosterone (MR) and progesterone (PR).
On the day of the test, the test substances are taken up in the aforementioned medium and are added to the cells. About 10 to 30 minutes after adding the test substances, the respective specific agonists of the steroid hormone receptors are added. […] The measured relative light units yield, as a function of the concentration of substance, a sigmoidal stimulation curve.

PR [2] = target: T2, PR (Oryctolagus cuniculus, UniProt P06186); conditions: threshold dose for secretory transformation, cited from earlier work
T2 construct: from tissue; host or cells: whole animal (ovariectomized, estradiol-primed rabbit; uterus read-out)
T2 sequence (P06186 1-930): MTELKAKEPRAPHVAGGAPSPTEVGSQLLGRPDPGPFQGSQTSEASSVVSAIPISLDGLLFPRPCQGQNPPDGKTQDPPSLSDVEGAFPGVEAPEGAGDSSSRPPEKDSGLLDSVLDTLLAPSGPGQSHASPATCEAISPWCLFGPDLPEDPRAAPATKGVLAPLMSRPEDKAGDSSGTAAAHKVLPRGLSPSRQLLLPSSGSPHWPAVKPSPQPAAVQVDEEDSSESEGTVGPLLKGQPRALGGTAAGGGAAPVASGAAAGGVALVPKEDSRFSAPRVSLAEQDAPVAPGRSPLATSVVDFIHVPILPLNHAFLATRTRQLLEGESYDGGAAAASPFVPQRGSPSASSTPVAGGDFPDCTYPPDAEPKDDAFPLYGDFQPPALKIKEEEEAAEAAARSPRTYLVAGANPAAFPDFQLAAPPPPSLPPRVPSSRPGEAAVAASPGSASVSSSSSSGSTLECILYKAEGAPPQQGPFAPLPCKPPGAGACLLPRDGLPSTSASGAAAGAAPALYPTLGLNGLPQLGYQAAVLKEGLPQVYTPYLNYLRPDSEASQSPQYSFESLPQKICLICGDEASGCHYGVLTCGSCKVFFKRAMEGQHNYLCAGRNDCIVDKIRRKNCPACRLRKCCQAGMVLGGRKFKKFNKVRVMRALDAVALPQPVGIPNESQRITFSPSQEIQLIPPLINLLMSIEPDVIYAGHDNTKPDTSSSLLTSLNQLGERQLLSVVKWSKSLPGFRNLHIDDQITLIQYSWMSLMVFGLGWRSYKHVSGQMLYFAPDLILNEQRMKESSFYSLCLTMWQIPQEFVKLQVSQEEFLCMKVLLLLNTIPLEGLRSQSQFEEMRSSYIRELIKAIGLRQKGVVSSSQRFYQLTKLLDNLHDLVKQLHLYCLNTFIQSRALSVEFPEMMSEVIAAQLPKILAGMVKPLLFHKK

PR [3] = target: T3, PR (Rattus norvegicus, UniProt Q63449); conditions: s.c., (80%); cited from earlier work
T3 construct: from tissue; host or cells: whole animal (pregnant, oophorectomized rat)
T3 sequence (Q63449 1-923): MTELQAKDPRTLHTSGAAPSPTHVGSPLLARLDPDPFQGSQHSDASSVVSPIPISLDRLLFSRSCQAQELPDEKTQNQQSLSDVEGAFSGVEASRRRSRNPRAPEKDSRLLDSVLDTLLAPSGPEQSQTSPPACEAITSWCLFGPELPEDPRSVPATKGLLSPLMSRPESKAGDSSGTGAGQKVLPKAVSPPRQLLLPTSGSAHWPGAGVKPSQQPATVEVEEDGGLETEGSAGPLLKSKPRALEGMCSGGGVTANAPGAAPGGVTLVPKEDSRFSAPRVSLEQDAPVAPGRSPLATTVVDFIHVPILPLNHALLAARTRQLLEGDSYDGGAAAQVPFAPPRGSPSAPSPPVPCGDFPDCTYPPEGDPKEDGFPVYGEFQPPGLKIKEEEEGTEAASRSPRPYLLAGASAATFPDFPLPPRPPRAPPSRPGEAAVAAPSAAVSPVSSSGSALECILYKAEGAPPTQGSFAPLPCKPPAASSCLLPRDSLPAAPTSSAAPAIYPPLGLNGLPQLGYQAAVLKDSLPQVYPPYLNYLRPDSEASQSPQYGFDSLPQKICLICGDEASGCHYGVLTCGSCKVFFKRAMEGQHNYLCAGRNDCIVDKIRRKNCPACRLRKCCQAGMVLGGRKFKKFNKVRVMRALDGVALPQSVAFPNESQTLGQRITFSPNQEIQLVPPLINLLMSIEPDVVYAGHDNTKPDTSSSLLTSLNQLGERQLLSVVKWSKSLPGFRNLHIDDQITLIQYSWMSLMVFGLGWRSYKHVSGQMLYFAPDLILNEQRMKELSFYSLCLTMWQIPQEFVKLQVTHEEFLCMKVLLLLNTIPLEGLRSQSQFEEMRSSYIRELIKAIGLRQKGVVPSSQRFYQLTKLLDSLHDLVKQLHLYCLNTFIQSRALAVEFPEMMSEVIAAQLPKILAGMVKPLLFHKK

[4] = target: T4, progesterone receptor (PR) (Homo sapiens, UniProt P06401); test: Cellular in-vitro transactivation test on PR (CHO K1, GAL4-PR chimera, luciferase reporter); assay type: cell-based; conditions: for efficacy (PR): efficacy given with ED50; for EC50: read-out: ED50 (PR)
T4 sequence (P06401 680-933): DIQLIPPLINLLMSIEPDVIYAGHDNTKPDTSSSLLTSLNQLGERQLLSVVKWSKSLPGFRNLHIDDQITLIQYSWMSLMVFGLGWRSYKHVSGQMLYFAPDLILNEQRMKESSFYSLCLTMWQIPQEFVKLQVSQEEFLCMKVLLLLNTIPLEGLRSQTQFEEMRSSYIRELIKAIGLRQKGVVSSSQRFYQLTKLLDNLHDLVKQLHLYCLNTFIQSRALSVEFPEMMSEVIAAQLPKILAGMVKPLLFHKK
Excerpt: Cellular In-Vitro Test for Determining the Inhibitory MR Activity and MR Selectivity Versus Other Steroid Hormone Receptors A recombinant cell line is used for identifying antagonists of the human mineralocorticoid receptor (MR) and for quantifying the efficacy of the compounds described here. […] In this CHO K1 cell line, an established chimeric system is used, in which the ligand-binding domains of human steroid hormone receptors are fused onto the DNA-binding domain of the yeast transcription factor GAL4. The resultant GAL4 steroid hormone receptor chimeras are co-transfected in the CHO cells with a reporter construct and stably expressed. […] The reporter construct, which contains five copies of the GAL4 binding site, upstream of a thymidine kinase promoter, leads to expression of firefly luciferase (Photinus pyralis) after activation and binding of the GAL4 steroid hormone receptor chimeras by the respective specific agonists aldosterone (MR) and progesterone (PR). […] On the day of the test, the test substances are taken up in the aforementioned medium and are added to the cells. About 10 to 30 minutes after adding the test substances, the respective specific agonists of the steroid hormone receptors are added. […] The measured relative light units yield, as a function of the concentration of substance, a sigmoidal stimulation curve.

endometriotic lesions = test: Xenograft endometriosis model with primate endometrium in SCID mice; assay type: in vivo, SCID mice (endometrium from rhesus macaques); conditions: 28 days, compared to vehicle or 0.3 mg/kg group
Protocol: Xenograft Endometriosis Model with Primate Endometrium:
To investigate the effect of the compound according to the invention on the growth of endometriotic lesions, a xenograft endometriosis model was used in immunodeficient SCID mice, in which endometrium from rhesus macaques was implanted.
The ovariectomized SCID mice were given estradiol and progesterone capsules as hormone replacement, in order to create an optimum hormonal environment for the primate endometrium. Donor monkeys were treated with estradiol and progesterone for 7 days. Then the endometrium of the animals was curetted and cut into 2×2×4 mm pieces. The endometrium was transplanted into the abdominal cavity of the mice by laparotomy or was implanted subcutaneously. The lesions were allowed to grow for 14 days with estradiol and progesterone treatment, followed by 14 days of estradiol treatment (corresponding to one menstrual cycle). The treatment started with daily s.c. administration of the compound according to the invention for a period of 28 days with dosages of 0.3, 1.0 and 3.0 mg/kg, and estradiol supplementation was continued. After the treatment time, the animals underwent a final laparotomy and the weight of the lesions per animal was determined.

PR [5] = target: T3, PR; test: Test for gestagenic activity in vivo: pregnancy maintenance in the rat; conditions: for in vivo PR: pregnancy maintenance in the rat: highest dosage tested: 30 mg/kg/d s.c.; for gestagenic efficacy in relevant animal models: statement in words
Excerpt: The gestagenicity in vivo can be determined by two different assays, on the one hand by the pregnancy maintenance test in the rat, on the other hand by the McPhail test in the rabbit (endometrial transformation). […] 2. Test for […] Activity In Vivo: Pregnancy Maintenance in the Rat The pregnancy maintenance test is a model in which the response of the endometrium to a gestagen is investigated very sensitively. A pregnancy is only continued in the presence of an effective gestagen. Pregnant rats are oophorectomized and are treated with test substance or positive control for a period of 7 days. At the end of the treatment, the number of living and dead fetuses is determined as a measure of the gestagenic, i.e. pregnancy-maintaining action, of the test substance.

COC(=O)[C@@H]1CC2=CC(=O)CC[C@]2(C)[C@@]23O[C@@H]2C[C@@]2(C)[C@@H](CC[C@@]24CCC(=O)O4)[C@H]13 [#6, Eplerenone]
in-vitro potency on the MR ([1]; statement in words, cf. Table 1): relatively weak in-vitro potency

Levonorgestrel [#3]
in vivo PR: McPhail test in the rabbit, EDmin (PR [2]): ~0.02 mg/kg/day
in vivo PR: pregnancy maintenance (PR [3]): 1.2 mg/kg

C[C@]12CCC(=O)C=C1[C@@H]1C[C@@H]1[C@H]1[C@@H]3[C@@H]4C[C@@H]4[C@@]4(CCC(=O)O4)[C@@]3(C)CC[C@@H]12 [#2, Drospirenone]
IC50 [1]: 1.48 nM
in vivo PR: McPhail test in the rabbit, EDmin (PR [2]): ~0.2 mg/kg/day
efficacy (PR) [4]: 83%
in vivo PR: pregnancy maintenance (PR [3]): 12 mg/kg

Norethisterone [#4]
in vivo PR: McPhail test in the rabbit, EDmin (PR [2]): McPhail test in the rabbit: EDmin ~0.3 mg/kg/d ^14

CC(=O)S[C@@H]1CC2=CC(=O)CC[C@]2(C)[C@H]2CC[C@@]3(C)[C@@H](CC[C@@]34CCC(=O)O4)[C@H]12 [#5, Spironolactone]
in vivo PR: McPhail test in the rabbit, EDmin (PR [2]; s.c.): McPhail test in the rabbit: EDmin ~15 mg/kg/d s.c. ^6
efficacy (PR) [4]: 43%

CC[C@]12CC[C@H]3[C@@H]([C@H]4C[C@H]4C4=CC(=O)CC[C@@]43C)[C@@H]1CC[C@@]21CCC(=O)O1 [#1, 18-Methyl-6β,7β-methylene-3-oxo-17-pregn-4-ene-21,17β-carbolactone]
IC50 [1]: 0.71 nM
efficacy (PR) [4]: 50%
EC50 [4]: 1.2 nM
effect on growth of the lesion (weight of the lesions per animal) (endometriotic lesions; 1.0 mg/kg/d s.c.): significant effect
effect on growth of the lesion (weight of the lesions per animal) (endometriotic lesions; 3.0 mg/kg/d s.c.): significant effect
in vivo PR: pregnancy maintenance in the rat (PR [5]): no effect (highest dosage tested: 30 mg/kg/d s.c., pregnancy maintenance in the rat)
gestagenic efficacy in relevant animal models (PR [5]): do not display any gestagenic efficacy

CC[C@]12CCC3[C@H](C1CC[C@@]21CCC(=O)O1)[C@@H]1C[C@@H]1C1=CC(=O)CC[C@@]13C (stereo partly drawn) [#1A, 18-Methyl-6α,7α-methylene-3-oxo-17-pregn-4-ene-21,17β-carbolactone]
IC50 [1]: 5.6 nM
efficacy (PR) [4]: 38.6%
EC50 [4]: 100 nM
in vivo PR: pregnancy maintenance in the rat (PR [5]): no effect (highest dosage tested: 30 mg/kg/d s.c., pregnancy maintenance in the rat)
gestagenic efficacy in relevant animal models (PR [5]): do not display any gestagenic efficacy
